Results on 2 compounds are retold here after patent publication US20210308133A1, “METHODS AND COMPOSITIONS FOR INHIBITING MUSCLE WASTING” (THE BOARD OF REGENTS OF THE UNIVERSITY OF TEXAS SYSTEM, priority 2020, published 2021).

The subject of one data set is p38 MAPK. Kind of data set: p38 MAPK activation and catabolic response in primary human myotubes treated with H1299 cell-conditioned medium. Format: cell-based. The settings on record: 500 nM. The source says:
(§1) Western blotting. All procedures were adhered to our previous publication ^12. The following primary antibodies were used: anti-p300 (1:500, sc584, Santa Cruz), anti-C/EBPβ (1:1000, MA1-827, Thermo Fisher), anti-pT188-C/EBPβ (1:1000, 3084, Cell Signaling Technology), anti-TLR4 (1:500, sc16240, Santa Cruz), anti-p38α MAPK (1:500, sc271120, Santa Cruz), anti-p38s MAPK (1:500, 2339, Cell Signaling Technology), anti-p38 MAPK (1:1000, 9212, Cell Signaling Technology), anti-p-p38 MAPK (1:1000, 4511, Cell Signaling Technology), anti-MAFbx (1:1000, AP2041, ECM Bioscience), anti-UBR2 (1:500, NBP1-45243, Novus Biologicals), anti-LC3 (1:2000, NB100-2220, Novus Biologicals) and anti-MHC (1:1000, MAB4470, R&D Systems). Antibody against acetylated Lys-39 of C/EBPβ (1:2000) was generated as previously described ^12. […] (SEQ ID NO: 1). Data were normalized to α-Tubulin (Development Studies Hybridoma Bank at the University of Iowa, Iowa City, Iowa).

The conditions of data set [1]: humans, 24 hours after first PO administration of 50 mg; cited from earlier work.
Data set [2] has as its system p38α MAPK-mediated myogenic differentiation of C2C12 myoblasts. In words: myogenic differentiation of C2C12 myoblasts (MHC expression). The class given is cell-based, Murine. To be noted: 96 hours differentiation.
Source text: as §1

Data set [3] concerns p38β MAPK-mediated activation of p300 and C/EBPβ. Kind of data set: LCM-induced p300 activation (Ser-12 phosphorylation) and C/EBPβ acetylation in C2C12 myotubes, Western blotting. The class given is cell-based, Murine. The settings on record: LCM 2 h, concentration-dependent. On the procedure: Cell cultures. Murine C2C12 myoblasts (American Type Culture Collection, ATCC) and human skeletal myoblasts (GIBCO®) were grown in growth medium (DMEM supplemented with 10% fetal bovine serum) at 37° C. under 5% CO2. Myoblast differentiation was induced at 85% confluence with differentiation medium (DMEM supplemented with 4% heat-inactivated horse serum in) for 96 hrs. Preconditioned medium from 48-hour cultures of Lewis lung carcinoma cells (National Cancer Institute, Frederick, Md.), H1299 human lung carcinoma cells (ATCC) or KPC cells (a gift from Dr. Elizabeth Jaffee of Johns Hopkins University) 14 were collected and centrifuged (1000×g, 5 min). Conditioned medium of non-tumorigenic NL20 cells (human lung epithelial cells, ATCC) was used as control. The supernatant was used to treat myotubes (25% final volume in fresh medium) when indicated and replaced every 24 h. […] All cell lines were tested negative for mycoplasma contamination. Cell culture-based experiments were replicated independently for 3 times.
Western blotting. All procedures were adhered to our previous publication ^12. […]
A general note: Immunoblotting shows a protein as a band on a membrane.

Another data set concerns C2C12 myotubes. Kind of data set: LCM-induced loss of MHC and myotube mass in C2C12 myotubes. Format: cell-based, Murine. To be noted: 500 nM, LCM 72 hrs.
Source text: as §1
Fluorescence microscopy and histology study. […] Myotube diameter was measured in MHC-stained myotubes as previously described ^12. Cross-sectional area of H&E-stained muscle sections was quantified by using the ImageJ software (NIH). Approximately 100 myofibers from each of 5 random views were quantified.

Another data set has as its system KPC tumor-bearing mice. Kind of data set: survival and muscle wasting of mice bearing orthotopic KPC pancreatic tumor. The class given is in vivo. On the procedure:
Survival of KPC tumor-bearing mice was recorded and analyzed using the Kaplan-Meier survival curve. […] Forelimb grip strength of the mice was monitored over the course of the survival study. Data were analyzed by 2-way ANOVA. * signifies a statistically significant difference (p<0.05).
At the end point, both of DMSO or nilotinib-treated KPC tumor-bearing mice were euthanized. Tumors were isolated and weighted (left panel). Net body weight was measured (right panel).
(§2) Animal use. Experimental protocols were pre-approved by the institutional Animal Welfare Committee at the University of Texas Health Science Center at Houston. LLC cells (1×10^6 in […]) were injected subcutaneously into the flanks of 8-week-old male C57B16 mice, TLR4^−/− mice in the C57BL/6 background ^17, or p38β MAPK muscle-specific knockout and p38β MAPK-floxed mice in the C57BL/6 background ^18. […] DMSO was injected accordingly as vehicle control. Plasmid encoding the p300-S12A mutant was transfected into TA muscle by electroporation on day 7 and day 14 following LLC implantation as described previously ^12. The contralateral TA was transfected with an empty vector as control. Development of cachexia was monitored by body weight and forelimb grip strength test, and usually took place within 21 days after implantation. On day 21, mice were euthanized, and muscle samples were harvested for further analyses. For survival study, orthotopic implantation of KPC cells was performed based on the procedures by Zhu et al. ^19. Briefly, a longitudinal incision was made to open the abdominal cavity for pancreas exposure. Then, 2×10^6 KPC cells suspended in 20 μl PBS were injected to the tail of pancreas.

A further data set concerns the target p38β MAPK (Homo sapiens, UniProt Q15759). The settings on record: p38β MAPK vs p38α MAPK; cited from earlier work.
For the next data set, the system named is UBR2. Kind of data set: LCM-induced UBR2 upregulation in C2C12 myotubes, Western blotting. Format: cell-based, Murine. To be noted: LCM 8 hours, concentration-dependent.
Source text: as §1

Data set [4] deals with LLC tumor-bearing mice. In words: muscle wasting in LLC tumor-bearing mice. The class given is in vivo. To be noted: 0.5 mg/kg/day i.p. from day 7 for 2 weeks. Here is the method:
Mice were euthanized on day 21. The tumor was isolated and weighed, and then the net body weight was measured. Muscle samples were collected immediately for analyses of muscle wasting. […] Catabolic markers in TA muscle lysates were analyzed by Western blotting. […] Grip strength was measured on the day of euthanasia. […] H&E-stained TA cross sections were analyzed for the myofiber cross-sectional area. * signifies a statistically significant difference (p<0.05) determined by one-way ANOVA (FIGS. 5A-E) or Chi-square test (FIG. 5F).
as §2, with “Development of cachexia was monitored by body weight and forelimb grip strength test, and usually took place within 21 days after implantation.” left out
as §1
Fluorescence microscopy and histology study. C2C12 myotubes were stained with anti-MHC antibody (1:1000, MAB4470, R&D Systems) and anti-mouse Alexa Fluor® Plus 488 secondary antibody (1:200, A32723, ThermoFisher), and examined using a Zeiss Axioskop 40 microscope and a Zeiss Axiocam MRM camera system controlled by Axiovision Release 4.6 imaging software. Acquired images were edited using the Photoshop software. Myotube diameter was measured in MHC-stained myotubes as previously described ^12. Cross-sectional area of H&E-stained muscle sections was quantified by using the ImageJ software (NIH). Approximately 100 myofibers from each of 5 random views were quantified.

Data set [5] relates to LLC tumor-bearing mice. The settings on record: as reported previously (ref 8); cited from earlier work.

p38β MAPK, sequence (Q15759 whole entry): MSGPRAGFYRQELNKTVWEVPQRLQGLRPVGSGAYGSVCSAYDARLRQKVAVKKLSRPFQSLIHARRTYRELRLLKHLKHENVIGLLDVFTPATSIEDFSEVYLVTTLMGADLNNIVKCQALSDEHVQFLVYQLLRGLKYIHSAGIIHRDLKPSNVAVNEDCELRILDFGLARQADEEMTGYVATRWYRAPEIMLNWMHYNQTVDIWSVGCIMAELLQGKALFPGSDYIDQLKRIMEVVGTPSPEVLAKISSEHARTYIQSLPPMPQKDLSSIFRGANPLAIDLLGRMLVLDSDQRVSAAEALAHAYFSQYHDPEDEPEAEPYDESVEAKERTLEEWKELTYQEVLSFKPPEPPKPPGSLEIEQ

Consider `Cc1cn(-c2cc(NC(=O)c3ccc(C)c(Nc4nccc(-c5cccnc5)n4)c3)cc(C(F)(F)F)c2)cn1` [nilotinib], for which, in the data set with p38 MAPK (1 h), the “C/EBPβ phosphorylation on Thr-188” value is reported as “blockade” and the “p38 MAPK activation by H1299 conditioned medium” value is listed as “abrogated”. For the same compound, the “upregulation of E3 ligase UBR2” value in the data set on p38 MAPK (8 h) is given as “blockade”. In data set [1], the serum concentration result is listed as “approximately 400 ng/ml”. The “MHC expression over the course of myoblast differentiation” value in [2] (500 nM) is “did not alter MHC expression”. In addition, the “C/EBPβ acetylation on Lys-39” value in data set [3] is on record as “inhibited”. Moreover, in the data set with C2C12 myotubes, the “LCM-induced loss of myosin heavy chain (MHC)” value is recorded as “resistant” and the “LCM-induced loss of myotube mass (myotube diameters)” value is given as “resistant”. Moreover, the median survival in the data set with KPC tumor-bearing mice (0.5 mg/kg/day i.p. from day 5 until end point) turned out to be 31 days. Besides, the “tumor volume at the end point versus DMSO” value in the data set on KPC tumor-bearing mice (0.5 mg/kg/day i.p., at end point) was “without significant difference in tumor volume”. In the data set on KPC tumor-bearing mice (0.5 mg/kg/day i.p., over the course of the survival study), the “loss of muscle function measured as grip strength” value was “attenuated”. Moreover, the “binding affinity for p38β MAPK higher than for p38α MAPK” value on p38β MAPK is 3 fold. Also, the “LCM-induced upregulation of UBR2” value with UBR2 is on record as “inhibited”. For the same compound, in the data set on LLC tumor-bearing mice [4], the LLC tumor growth result was “without affecting tumor growth”; the “activation of p300 (Ser-12 phosphorylation and Lys-39 acetylation of C/EBPβ) in TA muscle” value was “abolished”; the “increase in autophagosome formation (LC3-II levels)” value is “blockade”; the “loss of MHC in muscle” value is “blockade”. For the same compound, in the data set on LLC tumor-bearing mice [4], the “loss of TA and EDL weight” value is on record as “attenuated”; the “loss of body weight” value is “protected against the loss of body weight”; the “loss of muscle strength (grip strength)” value is on record as “attenuated”; the “myofiber cross-sectional area in TA” value is recorded as “preserved myofiber mass”. The “upregulation of E3 ligases UBR2 and atroginl/MAFbx in TA muscle” value in the data set on LLC tumor-bearing mice [4] was “blockade”.

Consider `Oc1ccc(-c2nc(-c3ccncc3)c(-c3ccc(F)cc3)[nH]2)cc1` [SB202190], for which the “onset of myoblast differentiation (MHC expression at 24 and 48 hours)” value in data set [2] (10 μM) is reported as “delayed”. Also, in the data set on LLC tumor-bearing mice [5], the “LLC tumor-induced muscle wasting in mice” value is recorded as “attenuates”.
